Here are results for 5 molecules from ChEMBL document CHEMBL1146872, “Synthesis, biochemical evaluation and rationalisation of the inhibitory activity of a series of 4-hydroxyphenyl ketones as potential inhibitors of 17beta-hydroxysteroid dehydrogenase type 3 (17beta-HSD3)” (Bioorg Med Chem Lett, 2006).

As usually defined, the IC50 is the concentration needed to halve the response being measured. The term inhibition denotes the percentage by which the read-out fell short of the control.

Test [1] concerns the target 17beta-HSD3 (Rattus norvegicus). The test is described as follows: Inhibition of 17beta-HSD3.
The test system of test [2] is 17beta-HSD3 (Rattus norvegicus). The test is described as follows: Inhibition of 17beta-HSD3 at 100 uM.

The molecule `CCCCCCCCCCCC(=O)c1ccc(O)cc1` displayed an IC50 in test [1] of 7.55 µM. This molecule also came in with an inhibition in test [2] of 78.9%.
In the same order, the values of `CCCCCC(=O)c1ccc(O)cc1` are 18 µM and 76.4%.
In the same order, the values of `CCCCCCCC(=O)c1ccc(O)cc1` are 6.52 µM and 82.6%.
As for `CCCCCCCCCC(=O)c1ccc(O)cc1`, 4.97 µM corresponded to half-maximal inhibition in test [1] (IC50). In test [2], this molecule gave an inhibition of 81.4%.
The corresponding values for `CCCCCCC(=O)c1ccc(O)cc1` are 7.84 µM and 80.3%.
